≈ marks a conversion by molar mass, not a printed value. Where two headings read alike, the source gives them in different places.
Assays:
CDK2/Cyclin A = target: T1, CDK2/Cyclin A (Homo sapiens, UniProt P24941); assay: Inhibition of CDK2/Cyclin A retinoblastoma kinase activity (apparent Ki); format: biochemical
T1 construct: made in house; host or cells: CDK2: insect cells (baculovirus); cyclin A: E. coli
Experimental: Cyclin-dependent kinase activity was measured by quantifying the enzyme-catalyzed, time-dependent incorporation of radioactive phosphate from [^32P]ATP or [^33P]ATP into a protein substrate. […] Reactions were initiated with enzyme, incubated at 30° C., and terminated after 20 minutes by the addition of ethylenediaminetetraacetic acid (EDTA) to 250 mM. […] Radioactivity was quantified by exposing the dried membranes to a phosphorimager.
Apparent Ki values were measured by assaying enzyme activity in the presence of different inhibitor compound concentrations and subtracting the background radioactivity measured in the absence of enzyme. Inhibition data were fit to an equation for competitive inhibition using Kaleidagraph (Synergy Software), or were fit to an equation for competitive tight-binding inhibition using the software KineTic (BioKin, Ltd.).
A complex of CDK2 and proteolyzed cyclin A was prepared and purified by gel filtration. […] Ki values were measured as described above.

[1] = Measurement of kinetic solubility; settings: pH 6.5, aqueous buffer, kinetic from dmso stock
Experimental: Kinetic solubility was determined with a […] stock solution from the compound(s) of interest. […] Samples and standards were then centrifuged and an aliquot was removed for HPLC analysis. Samples and standards were analyzed by HPLC and a final concentration for the sample was determined based on a one-point calibration curve from the corresponding standard. Results were reported as μg's/mL.

| Compound | Ki (CDK2/Cyclin A; read-out: CDK2 Ki) [nM] | solubility ([1]; 100 mM sodium phosphate buffer) [µg/mL] | solubility [1] [µg/mL] | Ki (CDK2/Cyclin A) [nM] |
| --- | --- | --- | --- | --- |
| CCNCc1cncc(-c2ccc3[nH]nc(-c4nc(-c5ccc(F)cc5)c[nH]4)c3c2)c1C [Example 31, Ethyl-(5-{3-[4-(4-fluoro-phenyl)-1H-imidazol-2-yl]-1H-indazol-5-yl}-4-methyl-pyridin-3-ylmethyl)-amine] | < 50 | 20 to 120 (≈ 46.9 to 281 µM) | – | – |
| CCNCc1cncc(-c2ccc3[nH]nc(-c4nc(C(=O)NC5CN6CCC5CC6)c[nH]4)c3c2)c1C (stereo in doubt) [Example 73, N-[(3S)-1-azabicyclo[2.2.2]oct-3-yl]-2-(5-{5-[(ethylamino)methyl]-4-methylpyridin-3-yl}-1H-indazol-3-yl)-1H-imidazole-5-carboxamide] | 50 to 200 | > 120 | – | – |
| CCNCc1cncc(-c2ccc3[nH]nc(-c4ncc(C(=O)N5CC=C(c6ccccc6)CC5)[nH]4)c3c2)c1C [Example 67, N-{[4-methyl-5-(3-{5-[(4-phenyl-3,6-dihydropyridin-1(2H)-yl)carbonyl]-1H-imidazol-2-yl}-1H-indazol-5-yl)pyridin-3-yl]methyl}ethanamine] | < 50 | 20 to 120 (≈ 38.6 to 232 µM) | – | – |
| CCNCc1cncc(-c2ccc3[nH]nc(-c4ncc(C(=O)N5CCN(Cc6ccccc6)CC5)[nH]4)c3c2)c1C [Example 66, N-{[5-(3-{5-[(4-benzylpiperazin-1-yl)carbonyl]-1H-imidazol-2-yl}-1H-indazol-5-yl)-4-methylpyridin-3-yl]methyl}ethanamine] | < 50 | – | > 120 | – |
| CCNCc1cncc(-c2ccc3[nH]nc(-c4nc(-c5cc(Cl)cc(Cl)c5)c(C)[nH]4)c3c2)c1C [Example 26, (5-{3-[4-(3,5-Dichloro-phenyl)-5-methyl-1H-imidazol-2-yl]-1H-indazol-5-yl}-4-methyl-pyridin-3-ylmethyl)-ethyl-amine] | < 50 | < 20 | – | – |
| CCNCc1cncc(-c2ccc3[nH]nc(-c4nc5c([nH]4)CCCC5)c3c2)c1CC [Example 46, Ethyl-{4-ethyl-5-[3-(4,5,6,7-tetrahydro-1H-benzoimidazol-2-yl)-1H-indazol-5-yl]-pyridin-3-ylmethyl}-amine] | < 50 | > 120 | – | – |
| CCNCc1cncc(-c2ccc3[nH]nc(-c4ncc(C(=O)N[C@H]5CCc6ccccc65)[nH]4)c3c2)c1C [Example 53, N-[(1S)-2,3-dihydro-1H-inden-1-yl]-2-(5-{5-[(ethylamino)methyl]-4-methylpyridin-3-yl]-1H-indazol-3-yl)-1H-imidazole-5-carboxamide] | < 50 | 20 to 120 (≈ 40.7 to 244 µM) | – | – |
| CCNCc1cncc(-c2ccc3[nH]nc(-c4nc(-c5ccccc5)c(C(=O)N(C)C5CCCCC5)[nH]4)c3c2)c1C [Example 13, 2-[5-(5-Ethylaminomethyl-4-methyl-pyridin-3-yl)-1H-indazol-3-yl]-5-phenyl-3H-imidazole-4-carboxylic acid cyclohexyl-methyl-amide] | > 200 | 20 to 120 (≈ 36.5 to 219 µM) | – | – |
| COCc1cncc(-c2ccc3[nH]nc(-c4nc5c([nH]4)CCCC5)c3c2)c1C [Example 41, 5-(5-Methoxymethyl-4-methyl-pyridin-3-yl)-3-(4,5,6,7-tetrahydro-1H-benzoimidazol-2-yl)-1H-indazole] | < 50 | > 120 | – | – |
| CCNCc1cncc(-c2ccc3[nH]nc(-c4ncc(C(=O)N5CCC(Cc6ncccn6)CC5)[nH]4)c3c2)c1C [Example 85, N-({4-methyl-5-[3-(5-{[4-(pyrimidin-2-ylmethyl)piperidin-1-yl]carbonyl}-1H-imidazol-2-yl)-1H-indazol-5-yl]pyridin-3-yl}methyl)ethanamine] | < 50 | > 120 | – | – |
| CCNCc1cncc(-c2ccc3[nH]nc(-c4nc(CC)c(CC)[nH]4)c3c2)c1C [Example 22, {5-[3-(4,5-Diethyl-1H-imidazol-2-yl)-1H-indazol-5-yl]-4-methyl-pyridin-3-ylmethyl}-ethyl-amine] | < 50 | > 120 | – | – |
| CCOCc1cncc(-c2ccc3[nH]nc(-c4nc5c([nH]4)CCCC5)c3c2)c1C [Example 43, 5-(5-Ethoxymethyl-4-methyl-pyridin-3-yl)-3-(4,5,6,7-tetrahydro-1H-benzoimidazol-2-yl)-1H-indazole] | 50 to 200 | 20 to 120 (≈ 51.6 to 310 µM) | – | – |
| CCNCc1cncc(-c2ccc3[nH]nc(-c4nc(-c5ccccc5)c(C(=O)NCC(C)C)[nH]4)c3c2)c1C [Example 7, 2-[5-(5-Ethylaminomethyl-4-methyl-pyridin-3-yl)-1H-indazol-3-yl]-5-phenyl-3H-imidazole-4-carboxylic acid isobutyl-amide] | 50 to 200 | 20 to 120 (≈ 39.4 to 236 µM) | – | – |
| CCNCc1cncc(-c2ccc3[nH]nc(-c4nc(-c5cccc(C(F)(F)F)c5)c(C)[nH]4)c3c2)c1C [Example 27, Ethyl-(4-methyl-5-{3-[5-methyl-4-(3-trifluoromethyl-phenyl)-1H-imidazol-2-yl]-1H-indazol-5-yl}-pyridin-3-ylmethyl)-amine] | < 50 | < 20 | – | – |
| CCNCc1cncc(-c2ccc3[nH]nc(-c4nc(C(=O)NCCOC)c[nH]4)c3c2)c1C [Example 65, 2-(5-{5-[(ethylamino)methyl]-4-methylpyridin-3-yl}-1H-indazol-3-yl)-N-(2-methoxyethyl)-1H-imidazole-5-carboxamide] | – | > 120 | – | < 50 |
| CCNCc1cncc(-c2ccc3[nH]nc(-c4nc(-c5ccccc5)c(C)[nH]4)c3c2)c1C [Example 29, Ethyl-{4-methyl-5-[3-(5-methyl-4-phenyl-1H-imidazol-2-yl)-1H-indazol-5-yl]-pyridin-3-ylmethyl}-amine] | < 50 | 20 to 120 (≈ 47.3 to 284 µM) | – | – |
| CCNCc1cncc(-c2ccc3[nH]nc(-c4cnc[nH]4)c3c2)c1C [Example 90, N-({5-[3-(1H-imidazol-5-yl)-1H-indazol-5-yl]-4-methylpyridin-3-yl}methyl)ethanamine] | < 50 | > 120 | – | – |
| CCNCc1cncc(-c2ccc3[nH]nc(-c4nc(-c5ccc(C(F)(F)F)cc5)c(C)[nH]4)c3c2)c1C [Example 28, Ethyl-(4-methyl-5-{3-[5-methyl-4-(4-trifluoromethyl-phenyl)-1H-imidazol-2-yl]-1H-indazol-5-yl}-pyridin-3-ylmethyl)-amine] | < 50 | 20 to 120 (≈ 40.8 to 245 µM) | – | – |
| CCNCc1cncc(-c2ccc3[nH]nc(-c4ncc(C(=O)NCCC5=CCCCC5)[nH]4)c3c2)c1C [Example 80, N-(2-cyclohex-1-en-1-ylethyl)-2-(5-{5-[(ethylamino)methyl]-4-methylpyridin-3-yl}-1H-indazol-3-yl)-1H-imidazole-5-carboxamide] | < 50 | – | – | – |
| CCc1nc(-c2n[nH]c3ccc(-c4cncc(N)c4C)cc23)[nH]c1CC [Example 37, 5-[3-(4,5-Diethyl-1H-imidazol-2-yl)-1H-indazol-5-yl]-4-methyl-pyridin-3-ylamine] | < 50 | – | – | – |
| CCNCc1cncc(-c2ccc3[nH]nc(-c4ncc(C(=O)N(C)C5CCN(Cc6ccccc6)C5)[nH]4)c3c2)c1C (stereo not shown) [Example 82, N-(1-benzylpyrrolidin-3-yl)-2-(5-{5-[(ethylamino)methyl]-4-methylpyridin-3-yl}-1H-indazol-3yl)-N-methyl-1H-imidazole-5-carboxamide] | < 50 | – | – | – |
| CCNCc1cncc(-c2ccc3[nH]nc(-c4cc(C)n[nH]4)c3c2)c1C [Example 89, Ethyl-{4-methyl-5-[3-(5-methyl-2H-pyrazol-3-yl)-1H-indazol-5-yl]-pyridin-3-ylmethyl}-amine] | < 50 | – | – | – |
| CCNCc1cncc(-c2ccc3[nH]nc(-c4nc(-c5ccc(OC)c(OC)c5)c[nH]4)c3c2)c1C [Example 33, (5-{3-[4-(3,4-Dimethoxy-phenyl)-1H-imidazol-2-yl]-1H-indazol-5-yl}-4-methyl-pyridin-3-ylmethyl)-ethyl-amine] | < 50 | – | – | – |
| CCNCc1cncc(-c2ccc3[nH]nc(-c4ncc(C(=O)N5CCN(c6ccccc6)CC5)[nH]4)c3c2)c1C [Example 59, N-{[4-methyl-5-(3-{5-[(4-phenylpiperazin-1-yl)carbonyl]-1H-imidazol-2-yl}-1H-indazol-5-yl)pyridin-3-yl]methyl}ethanamine] | < 50 | – | – | – |
| CCNCc1cncc(-c2ccc3[nH]nc(-c4ncc(C(=O)N5CCCC(Cc6ncccn6)CC5)[nH]4)c3c2)c1C (stereo not shown) [Example 79, N-({4-methyl-5-[3-(5-{[4-(pyrimidin-2-ylmethyl)azepan-1-yl]carbonyl}-1H-imidazol-2-yl)-1H-indazol-5-yl]pyridin-3-yl}methyl)ethanamine] | < 50 | – | – | – |
| CCNCc1cncc(-c2ccc3[nH]nc(-c4nc(C(=O)NCc5ccccn5)c[nH]4)c3c2)c1C [Example 52, 2-(5-{5-[(ethylamino)methyl]-4-methylpyridin-3-yl}-1H-indazol-3-yl)-N-(pyridin-2-ylmethyl)1H-imidazole-5-carboxamide] | < 50 | – | – | – |
| CCNCc1cncc(-c2ccc3[nH]nc(-c4ncc(C(=O)N(CCN(C)C)Cc5ccccc5)[nH]4)c3c2)c1C [Example 81, N-benzyl-N-[2-(dimethylamino)ethyl]-2-(5-{5-[(ethylamino)methyl]-4-methylpyridin-3-yl}-1H-indazol-3-yl)-1H-imidazole-5-carboxamide] | < 50 | – | – | – |
| CNCc1cncc(-c2ccc3[nH]nc(-c4nc(C)c[nH]4)c3c2)c1C [Example 93, N-methyl-1-{4-methyl-5-[3-(4-methyl-1H-imidazol-2-yl)-1H-indazol-5-yl]pyridin-3-yl}methanamine] | < 50 | – | – | – |

Source: US20050090529A1, “3,5 Disubstituted indazole compounds with nitrogen-bearing 5-membered heterocycles, pharmaceutical compositions, and methods for mediating or inhibiting cell proliferation” (PFIZER INC, priority 2003, published 2005)
